Experimental data as given in patent US8304223B2, “Isoforms of pig liver esterase” (Enzymicals AG, priority 2007, dated 2012).
Like-named read-outs stand apart in the source and are kept apart here.

Legend:
PLE 1 (γ-PLE) = target: T1, PLE 1 (γ-PLE) (Sus scrofa, UniProt Q29550); assay: biochemical; assay type: biochemical, pig; details: 25° C.; for Remaining activity in %: inhibitor 1 mM; for remaining activity at 10 µM: inhibitor 0.01 mM
T1 construct: made in house; host or cells: E. coli Origami (DE3) with pGro7 (GroEL/GroES coexpression), crude extract
T1 sequence (Q29550 with tags, fused parts or gaps): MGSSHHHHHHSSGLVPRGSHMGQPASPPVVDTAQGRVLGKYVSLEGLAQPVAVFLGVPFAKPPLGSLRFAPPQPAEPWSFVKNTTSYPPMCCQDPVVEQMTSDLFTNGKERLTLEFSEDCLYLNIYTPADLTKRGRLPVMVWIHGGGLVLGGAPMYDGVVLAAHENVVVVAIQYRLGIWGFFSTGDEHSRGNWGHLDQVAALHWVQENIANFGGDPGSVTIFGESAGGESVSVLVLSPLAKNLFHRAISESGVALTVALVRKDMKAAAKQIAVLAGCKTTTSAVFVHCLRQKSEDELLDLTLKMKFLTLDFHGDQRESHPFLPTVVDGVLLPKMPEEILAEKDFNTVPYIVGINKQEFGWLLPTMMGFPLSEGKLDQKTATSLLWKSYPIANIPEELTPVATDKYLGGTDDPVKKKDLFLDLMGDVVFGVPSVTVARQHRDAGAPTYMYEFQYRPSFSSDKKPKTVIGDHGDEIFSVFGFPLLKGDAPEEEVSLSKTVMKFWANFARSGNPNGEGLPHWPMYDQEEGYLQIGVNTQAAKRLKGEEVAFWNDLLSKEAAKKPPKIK
Procedure: (§1) Esterase activity was determined spectrophotometrically in sodium phosphate buffer (50 mM) by means of p-nitrophenyl acetate (10 mM, dissolved in dimethyl sulfoxide) as substrate. The amount of p-nitrophenol generated was determined at a wavelength of 410 nm (ε=15*10^3 M^−1 cm^−1) at RT and pH 7.5. 1 unit (U) is defined as the amount of enzyme capable of converting 1 μM p-nitrophenol per minute under analytical conditions (Krebsfänger, N., et. al., (1998) Enzyme Microb. Technol, 22, 641-646).
(§2) The inhibitability of the new PLE variants was determined by treating the crude extracts with any of three esterase inhibitors. […] Samples were taken at certain points in time and the remaining esterase activity was determined by the pNPA assay.

PLE 2 = target: T2, PLE 2 (Sus scrofa, UniProt Q29550, F477A/K481R/L479F); assay: biochemical; assay type: biochemical, pig; details: 25° C.; for Remaining activity in %: inhibitor 1 mM; for remaining activity at 10 µM: inhibitor 0.01 mM
T2 construct: made in house; host or cells: E. coli Origami (DE3) with pGro7 (GroEL/GroES coexpression), crude extract
T2 sequence (Q29550 19-562 F477A/L479F/K481R): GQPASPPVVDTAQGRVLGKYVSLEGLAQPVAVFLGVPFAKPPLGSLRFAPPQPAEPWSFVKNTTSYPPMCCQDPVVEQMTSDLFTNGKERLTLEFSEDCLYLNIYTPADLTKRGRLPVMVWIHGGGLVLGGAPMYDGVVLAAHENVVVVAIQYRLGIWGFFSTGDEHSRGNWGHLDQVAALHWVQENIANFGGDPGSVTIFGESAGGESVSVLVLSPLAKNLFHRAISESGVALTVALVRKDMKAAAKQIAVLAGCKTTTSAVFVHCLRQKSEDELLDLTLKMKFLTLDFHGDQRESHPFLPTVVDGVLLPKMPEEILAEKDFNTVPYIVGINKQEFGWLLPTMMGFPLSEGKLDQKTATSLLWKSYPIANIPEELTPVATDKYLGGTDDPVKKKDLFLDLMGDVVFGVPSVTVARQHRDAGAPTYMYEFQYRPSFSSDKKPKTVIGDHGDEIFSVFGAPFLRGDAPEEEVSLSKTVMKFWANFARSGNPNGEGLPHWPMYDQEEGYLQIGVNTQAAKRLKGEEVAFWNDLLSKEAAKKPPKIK
Procedure: as §1, §2

PLE 3 = assay: Influence of inhibitors, remaining activity by pNPA assay; assay type: biochemical, pig; details: 25° C.
Procedure: as §1, §2

PLE 4 = assay: as above; assay type: biochemical, pig; details: 25° C.
Procedure: as §1, §2

PLE 5 = assay: as above; assay type: biochemical, pig; details: 25° C.
Procedure: as §1, §2

[1] = pNPA assay of esterase activity (crude extracts); assay type: biochemical; details: crude extract, N-terminal His6 tag
Procedure: The chaperones were coexpressed with the PLE isoenzymes in 150 ml of LB medium containing 20 μg mL^−1 chloramphenicol and 50 μg mL^−1 ampicillin for plasmid selection. Chaperone expression was immediately initiated by adding 1 mg mL^−1 L-arabinose. PLE production was induced at OD600=0.5 by adding 40 μM IPTG. The cells were removed by centrifugation after 24 h, resuspended in 10 ml of sodium phosphate buffer (50 mM, pH 7.5) and disrupted using ultrasound. Cell debris was removed by centrifugation, and the supernatant was used for further experiments (crude cell extract). Protein content and esterase activity were determined according to Bradford or using the pNPA assay.
as §1

[2] = pH stat activity with achiral ester tributyrin; assay type: biochemical; details: purified enzyme, pH stat at 37° C. and pH 7.5, 10 min
Procedure: (§3) Esterase substrate specificity was analyzed at constant pH. A known amount of esterase was added to an emulsion (20 mL) containing an ester substrate (5% (v/v); tributyrin, ethyl acetate, triolein or methyl butyrate) and gum arabic (2% (w/v)) at 37° C. The acid liberated was counter titrated automatically in a pH statiometer (Schott, Mainz, Germany) with 0.01 N NaOH in order to maintain a constant pH of 7.5. 1 unit (U) is defined as the amount of enzyme capable of generating 1 μM acid per minute under analytical conditions.

[3] = pH stat activity with achiral ester ethyl caprylate; assay type: biochemical; details: purified enzyme, pH stat at 37° C. and pH 7.5, 10 min
Procedure: Esterase substrate specificity was analyzed at constant pH. […] The acid liberated was counter titrated automatically in a pH statiometer (Schott, Mainz, Germany) with 0.01 N NaOH in order to maintain a constant pH of 7.5. 1 unit (U) is defined as the amount of enzyme capable of generating 1 μM acid per minute under analytical conditions.

[4] = pH stat activity with achiral ester methyl butyrate; assay type: biochemical; details: purified enzyme, pH stat at 37° C. and pH 7.5, 10 min
Procedure: as §3

[5] = pH stat activity with achiral ester ethyl acetate; assay type: biochemical; details: purified enzyme, pH stat at 37° C. and pH 7.5, 10 min
Procedure: as §3

[6] = pH stat activity with achiral ester triolein; assay type: biochemical; details: purified enzyme, pH stat at 37° C. and pH 7.5, 10 min
Procedure: as §3

[7] = Kinetic resolution of the racemates of substrate 1; assay type: biochemical; details: calculated according to Chen et al.
Procedure: (§4) Hydrolysis was carried out in 1.5 ml reaction vessels in a thermomixer (Thermomixer comfort Eppendorf, Hamburg, Germany) at 37° C. 0.5 U esterase crude extract (based on the pNPA assay) were used for 1 ml of substrate solution (10 mM in sodium phosphate buffer pH 7.5, 50 mM). The reaction was stopped by extracting the mixture with dichloromethane, and the organic phase was dried over anhydrous sodium sulfate.
(§5) Enantiomeric purity and conversion were determined by gas chromatography. Enantioselectivity of the variant enzymes was calculated according to Chen et al. (C. S. Chen, Y. Fujimoto, G. Girdaukas, C. J. Sih, J. Am. Chem. Soc. 1982, 104, 7294.).
(§6) For a more detailed description of the synthesis of the substrates and the retention times in GC analysis, see Musidlowska-Persson, A. and Bornscheuer, U. T., “Substrate Specificity of the γ-isoenzyme of recombinant pig liver esterase towards acetates of secondary alcohols” J. Mol. Catal. B. Enzym. 2002, 19-20, 129-133.

[8] = Kinetic resolution of the racemates of substrate 2; assay type: biochemical; details: calculated according to Chen et al.
Procedure: as §4, §5, §6

[9] = Kinetic resolution of the racemates of substrate 3; assay type: biochemical; details: calculated according to Chen et al.
Procedure: as §4, §5, §6

[10] = Native PAGE with Fast Red activity staining; assay type: biochemical; details: crude extracts, Fast Red staining with α-naphthyl acetate
Procedure: A mixture containing the crude extract of recombinantly produced PLE (5-15 μL, corresponding to 0.05-0.15 U of pNPA analysis) was mixed with buffer solution (20% (w/v) glycerol; 0.0025% (w/v) bromophenol blue in dH2O) (5-10 μL). Aliquots thereof were separated on a native polyacrylamide gel (7.5%). For activity staining, the gel was incubated in a mixture of freshly prepared α-naphthyl acetate and Fast Red. Formation of a red complex between α-naphthol generated and Fast Red indicated hydrolytic activity of the esterase. (Krebsfänger, N., et. al., (1998) Enzyme Microb. Technol, 22, 641-646). The gel was then stained with Coomassie Brilliant Blue.
Esterase activity was checked by applying the crude extracts to a native gel which was then incubated in Fast Red solution with α-naphthyl acetate as substrate. This was followed by Coomassie staining (FIG. 4: Native PAGE of the crude extracts of PLE2, clone 12, PLE3, PLE4, PLE5, γPLE and the E. coli Origami pGro7 wild type (negative control). Left-hand side: Fast Red staining with α-naphthyl acetate, right-hand side: subsequent Coomassie Brilliant Blue staining).

[11] = substrate 4; literature data (*); cited from earlier work

[F-].[Na+] [NaF, sodium fluoride]
Remaining activity in % (PLE 1 (γ-PLE); 5 min): 20%
Remaining activity in % (PLE 1 (γ-PLE); 30 min): 21%
Remaining activity in % (PLE 2; 5 min): 17%
Remaining activity in % (PLE 2; 30 min): 15%
Remaining activity in % (PLE 3; inhibitor 1 mM, 5 min): 44%
Remaining activity in % (PLE 3; inhibitor 1 mM, 30 min): 46%
Remaining activity in % (PLE 4; inhibitor 1 mM, 5 min): 64%
Remaining activity in % (PLE 4; inhibitor 1 mM, 30 min): 66%
Remaining activity in % (PLE 5; inhibitor 1 mM, 5 min): 83%
Remaining activity in % (PLE 5; inhibitor 1 mM, 30 min): 88%

O=S(=O)(F)Cc1ccccc1 [Phenylmethylsulfonyl fluoride (PMSF), phenylmethylsulfonyl fluoride]
Remaining activity in % (PLE 3; inhibitor 0.01 mM, 1 min): 77%
Remaining activity in % (PLE 3; inhibitor 0.01 mM, 5 min): 51%
Remaining activity in % (PLE 3; inhibitor 0.01 mM, 30 min): 7%
Remaining activity in % (PLE 3; inhibitor 0.01 mM, 60 min): 5%
Remaining activity in % (PLE 4; inhibitor 0.01 mM, 1 min): 78%
Remaining activity in % (PLE 4; inhibitor 0.01 mM, 5 min): 56%
Remaining activity in % (PLE 4; inhibitor 0.01 mM, 30 min): 7%
Remaining activity in % (PLE 4; inhibitor 0.01 mM, 60 min): 2%
Remaining activity in % (PLE 5; inhibitor 0.01 mM, 1 min): 88%
Remaining activity in % (PLE 5; inhibitor 0.01 mM, 5 min): 76%
Remaining activity in % (PLE 5; inhibitor 0.01 mM, 30 min): 24%
Remaining activity in % (PLE 5; inhibitor 0.01 mM, 60 min): 3%

CNC(=O)Oc1ccc2c(c1)[C@]1(C)CCN(C)[C@@H]1N2C [Physostigmine, physostigmine]
remaining activity at 10 µM (PLE 1 (γ-PLE); 1 min): 41%
remaining activity at 10 µM (PLE 1 (γ-PLE); 5 min): 12%
remaining activity at 10 µM (PLE 1 (γ-PLE); 30 min): 7%
remaining activity at 10 µM (PLE 2; 1 min): 61%
remaining activity at 10 µM (PLE 2; 5 min): 25%
remaining activity at 10 µM (PLE 2; 30 min): 6%

B1: PLE 1: previously disclosed γ-isoenzyme of pig liver esterase (Seq. ID No. 2), recombinant from E. coli Origami with GroEL/ES (protein)
chain: T1 sequence (Q29550 with tags, fused parts or gaps)
modifications: Pig liver
Volume activity [1]: 11 U/ml
Specific activity, Tributyrin [2]: 306
Specific activity, Ethyl caprylate [3]: 63
Specific activity, Methyl butyrate [4]: 57
Specific activity, Ethyl acetate [5]: 38
Specific activity, Triolein [6]: 0
E (enantioselectivity) [7]: 4
E (enantioselectivity) [8]: 17
E (enantioselectivity) [9]: 72
Esterase activity (active bands) in native gel [10]: Active esterase bands are visible
E (enantioselectivity) [11]: 17
